Values joined by “and” are separate entries in the source; they are usually repeats but may differ in a detail not shown here. Identical values can stand only once.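 Dose response: 5 concentrations. Exposure: 48 h. Format: 96-well plates. Endpoint: linear interpolation; highest concentration if not reached. At the TGI there is no net growth.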
Legend:
Experiment in all cases: inhibition of tumour cell growth, NCI panel, 48 h
UO-31 renal = system: UO-31 renal
MDA-N = system: MDA-N
HCT-15 colon = system: HCT-15 colon
U251 CNS = system: U251 CNS
OVCAR-3 ovarian = system: OVCAR-3 ovarian
NCI-H23 lung = system: NCI-H23 lung
K-562 leukemia = system: K-562 leukemia
UACC-257 melanoma = system: UACC-257 melanoma
OVCAR-8 ovarian = system: OVCAR-8 ovarian
MALME-3M melanoma = system: MALME-3M melanoma
SF-268 CNS = system: SF-268 CNS
BT-549 breast = system: BT-549 breast
HOP-62 NSCLC = system: HOP-62 NSCLC
NCI-H460 lung = system: NCI-H460 lung
SK-MEL-5 melanoma = system: SK-MEL-5 melanoma
PC-3 prostate = system: PC-3 prostate
DU-145 prostate = system: DU-145 prostate
OVCAR-5 ovarian = system: OVCAR-5 ovarian
RXF 393 renal = system: RXF 393 renal

SMILES	TGI (UO-31 renal)	TGI (MDA-N)	TGI (HCT-15 colon)	TGI (U251 CNS)	TGI (OVCAR-3 ovarian)	TGI (NCI-H23 lung)	TGI (K-562 leukemia)	TGI (UACC-257 melanoma)	TGI (OVCAR-8 ovarian)	TGI (MALME-3M melanoma)	TGI (SF-268 CNS)	TGI (BT-549 breast)	TGI (HOP-62 NSCLC)	TGI (NCI-H460 lung)	TGI (SK-MEL-5 melanoma)	TGI (PC-3 prostate)	TGI (DU-145 prostate)	TGI (OVCAR-5 ovarian)	TGI (RXF 393 renal) [µM]
O=C1CSC(c2ccc(Cl)cc2)N1c1ccc(-c2ccc(-n3c(-c4ccccc4)nc4ccccc4c3=O)cc2)cc1 (centres undefined)	59.5 µM	> 100 µM	> 100 µM	85.8 µM	> 100 µM	> 100 µM	> 100 µM	> 100 µM	> 100 µM	> 100 µM	> 100 µM	> 100 µM	> 100 µM	> 100 µM	> 100 µM	> 100 µM	> 100 µM		
CCN1C(=O)c2ccccc2C1(O)c1ccc(Cl)cc1 (centres undefined)	> 100 µM	> 100 µM	> 100 µM	> 100 µM	> 100 µM	> 100 µM	> 100 µM	> 100 µM	> 100 µM		> 100 µM	> 100 µM	> 100 µM	> 100 µM	> 100 µM	80.6 µM	> 100 µM	> 100 µM	
CC(C)[Si](OC1=C(C(=O)N(C)c2ccccc2Cl)CCCC1)(C(C)C)C(C)C	27.6 µM	34.3 µM	31.2 µM	25.8 µM	27.5 µM	31.4 µM	> 100 µM	24.1 µM	30.2 µM	26.4 µM	29.2 µM		34.6 µM	28.6 µM	27.5 µM	24.4 µM	22.5 µM	26.3 µM	30.1
CN(C)c1nc(=NCc2cccs2)ss1	> 10 µM	> 10 µM	> 10 µM	> 10 µM	> 10 µM	> 10 µM	> 10 µM	> 10 µM	> 10 µM	> 10 µM	> 10 µM		> 10 µM	> 10 µM	> 10 µM	> 10 µM	> 10 µM	> 10 µM	> 10
COc1ccc2oc(=O)c(CC=C(C)C)c(O)c2c1C	> 100 µM	> 100 µM	> 100 µM	> 100 µM	> 100 µM	> 100 µM	> 100 µM	> 100 µM	> 100 µM	> 100 µM	> 100 µM	> 100 µM	> 100 µM	> 100 µM	> 100 µM	> 100 µM	> 100 µM	> 100 µM	
CC(C)(C)CC(C)(C)N=C(N)NO	> 80.2 µM	> 100 µM	> 100 µM	> 100 µM	> 100 µM	> 100 µM	> 100 µM	> 100 µM	> 100 µM	> 100 µM	> 100 µM		> 100 µM	> 100 µM	> 100 µM	> 100 µM	> 100 µM	> 100 µM	> 100
Cc1cc(C)n(-c2nc3ccccc3c(=O)n2-c2ccccc2)n1	14.3 µM	> 100 µM	> 100 µM	> 100 µM	> 100 µM	> 100 µM	> 100 µM	> 100 µM	> 100 µM	> 100 µM	> 100 µM		> 100 µM	> 100 µM	> 100 µM	> 100 µM	> 100 µM	> 100 µM	> 100
O=C(Cc1ccccc1)NNc1nc(NNC(=O)c2ccncc2)nc(Nc2ccccc2)n1	> 10 µM	> 10 µM	> 10 µM	> 10 µM			> 10 µM	> 10 µM	> 10 µM	> 10 µM	> 10 µM	> 10 µM	> 10 µM	> 10 µM			> 10 µM		
O=c1cc(-c2ccccc2)oc2ccc(-c3ccc4oc(-c5ccccc5)cc(=O)c4c3)cc12	21.7 µM	29 µM	30 µM			34.5 µM	34.3 µM		35.2 µM	34.7 µM			36.5 µM	41.9 µM	25.5 µM			> 100 µM	
CC(C)C1SCc2nc3ccccc3n21 (centres undefined)	> 100 µM	> 100 µM	> 100 µM	> 100 µM	> 100 µM	> 100 µM	> 100 µM	> 100 µM	> 100 µM	> 100 µM	> 100 µM		> 100 µM	> 100 µM	31 µM	71.2 µM	> 100 µM	> 100 µM	> 100
COc1ccc(C2=Nn3c(nc4sc(-c5ccccc5)cc4c3=O)SC2)cc1	> 100 µM	> 100 µM	> 100 µM	> 100 µM	> 100 µM	> 100 µM		> 100 µM	> 100 µM	> 100 µM	> 100 µM	> 100 µM	> 100 µM	> 100 µM	> 100 µM	> 100 µM	> 100 µM	> 100 µM	
Cc1ccc(CC2(OCCN(C)C)CCC(C(C)(C)C)CC2)cc1 (centres undefined)	14.6 µM and 19 µM	6.96 µM and 5.28 µM	14.9 µM and 15.4 µM	6.39 µM and 10.2 µM	25.8 µM and 27.2 µM	25.6 µM and 24.4 µM	3.97 µM and 4.45 µM	7.65 µM and 4.74 µM	16.1 µM and 24.1 µM	3.36 µM and 3.64 µM	27.9 µM and 23.5 µM	16.1 µM and 19.8 µM	11.1 µM and 8.4 µM	3.71 µM and 3.57 µM	2.94 µM and 2.97 µM	13.7 µM and 15.2 µM	15.1 µM and 17.1 µM	14 µM and 13.9 µM	
O=C1c2cscc2C(=O)C1(O)O	49.1 µM	> 100 µM	> 100 µM	> 100 µM	67.5 µM	45.9 µM	> 100 µM	65.1 µM	> 100 µM	54.8 µM	> 100 µM	90.9 µM	> 100 µM	> 100 µM	> 100 µM	> 100 µM	> 100 µM	> 100 µM	
COCOCC1CCCN1CN1CCC[C@H]1COCOC (some centres undefined)	> 100 µM	> 100 µM	> 100 µM	> 100 µM	> 100 µM	> 100 µM	> 100 µM	> 100 µM	> 100 µM		> 100 µM		> 100 µM	> 100 µM	> 100 µM	> 100 µM	> 100 µM	> 100 µM	
NC1=CN(Cc2ccccc2)C2=N/C(=C\c3ccccc3)C(=O)N12	> 100 µM		> 100 µM	> 100 µM	> 100 µM	> 100 µM	> 100 µM	> 100 µM	> 100 µM	> 100 µM	> 100 µM	> 100 µM	> 100 µM	> 100 µM	> 100 µM	> 100 µM	> 100 µM	> 100 µM	> 100
O=C1/C(=C/c2ccccc2)N=C(c2ccccc2)N1C1Nc2cc3c(cc2S1)NC(N1C(=O)/C(=C/c2ccccc2)N=C1c1ccccc1)S3 (centres undefined)	> 100 µM	> 100 µM	82.9 µM	> 100 µM	> 100 µM	39.3 µM	> 100 µM	> 100 µM	> 100 µM		> 100 µM		> 100 µM	> 100 µM	> 100 µM	> 100 µM	> 100 µM	> 100 µM	54.3
COc1ccc2oc(=O)c3c(c2c1C)OC(C)(C)C=C3	> 100 µM	> 100 µM	> 100 µM	> 100 µM	> 100 µM	> 100 µM	> 100 µM	> 100 µM	> 100 µM	> 100 µM	> 100 µM	> 100 µM	> 100 µM	> 100 µM	> 100 µM	> 100 µM	> 100 µM	> 100 µM	
O=C1C[C@@H](Sc2ccccc2)C2(OCCO2)[C@H]2ON3CCC[C@@H]3[C@@H]12	4.12 µM	6.97 µM	9.7 µM	18 µM	9.15 µM	17.9 µM	13.8 µM	29.3 µM	5.57 µM	4.31 µM	12.1 µM	18.9 µM	13.8 µM	18.7 µM		20.6 µM	6.07 µM		
O=C(Nc1nnc(-c2c(Cl)c(Cl)c(Cl)c(Cl)c2-c2nc3cc(C(=O)c4ccccc4)ccc3[nH]2)o1)c1ccccc1	> 100 µM	12.6 µM	36.7 µM	26.5 µM	44.7 µM	54.2 µM	> 100 µM	85.7 µM	> 100 µM			73.4 µM	26.3 µM		18.5 µM	28.3 µM	47.8 µM	55.7 µM	39.1
CC(C)c1c(O[Si](C(C)C)(C(C)C)C(C)C)c2c3c(ccc4c3c1OC4(C)C)C(C)CC2 (centres undefined)	> 100 µM	> 100 µM	> 100 µM	> 100 µM	> 100 µM	> 100 µM	> 100 µM	> 100 µM	> 100 µM	> 100 µM	> 100 µM		> 100 µM	> 100 µM	> 100 µM	> 100 µM	> 100 µM	> 100 µM	> 100
O=C1Oc2ccccc2C(=O)/C1=C/N1C(=O)N/C(=C\c2cccc(O)c2)C1=O	> 100 µM	> 100 µM	> 100 µM	> 100 µM	> 100 µM	> 100 µM		> 100 µM	> 100 µM			73.2 µM	> 100 µM	> 100 µM	> 100 µM	> 100 µM	> 100 µM	> 100 µM	
Nc1ccc2cc3[nH]c4cc(N)ccc4c3nc2c1	0.659 µM	1.13 µM	1.47 µM	2.37 µM	2.69 µM	0.893 µM	> 22.6 µM	0.761 µM	1.69 µM		1.8 µM	3.15 µM	1.13 µM	0.548 µM	0.923 µM	1.49 µM	2.4 µM	1.83 µM	1.98
O=C(O)c1nc2ccccc2nc1Nc1ccc(F)cc1	> 100 µM		89.8 µM	> 100 µM	77.5 µM	> 100 µM	94.1 µM	> 100 µM	> 100 µM	> 100 µM	99.2 µM	> 100 µM	> 100 µM	> 100 µM	54.2 µM	90.7 µM	> 100 µM	> 100 µM	51.8
COc1c(C)c(C/C=C(\C)CCCCO)c(OC)c(OC)c1OC	> 100 µM	> 100 µM	> 100 µM	> 100 µM	> 100 µM	> 100 µM	> 100 µM	> 100 µM	> 100 µM		> 100 µM	> 100 µM	> 100 µM	35.1 µM	> 100 µM	> 100 µM	> 100 µM	> 100 µM	> 100
COc1cc2c(cc1OC)C1CCc3ccccc3CN1CC2 (centres undefined)		> 100 µM	> 100 µM	> 100 µM	> 100 µM	> 100 µM	> 100 µM	> 100 µM	> 100 µM	> 100 µM	> 100 µM		> 100 µM	> 100 µM	> 100 µM	> 100 µM	> 100 µM	> 100 µM	> 100
c1ccc(N=c2sc3ccccc3sc2=Nc2ccccc2)cc1	2.93 µM	3.05 µM	3.57 µM	3.3 µM		3.82 µM	> 100 µM	12.7 µM	4.08 µM	3.57 µM	10.2 µM		15.3 µM	3.79 µM	5.14 µM	25.5 µM	17.1 µM	3.83 µM	3.49
Cc1c2cccc-2ccc2c1[nH]c1ccc(Br)cc12	18.6 µM	18.8 µM	14 µM	12.1 µM	13.9 µM	22.4 µM	11.8 µM	> 100 µM	22.4 µM	21.5 µM	17.2 µM	20.7 µM	20.1 µM	> 100 µM	13.4 µM	14.2 µM	22.9 µM	16.7 µM	

From PubChem BioAssay (NCI)
